Among the data in the NIST ThermoML archive (doi:10.1021/je050440b) are activity coefficient values, retold here.

Numbers after ± are expanded uncertainties.

This data set is described as follows: activity coefficient (dimensionless); of the first substance listed, at infinite dilution; xn = mol fraction of the nth substance listed. Conditions: Liquid, Chromatography, x1 = 0.

With `CCCO` [propan-1-ol] + CCCC[N+](C)(C)C.O=S(=O)([N-]S(=O)(=O)C(F)(F)F)C(F)(F)F, the activity coefficient by setting is: (301.75 K) 2.76 ± 0.19; (312.15 K) 2.43 ± 0.17; (322.85 K) 2.14 ± 0.15; (333.35 K) 1.9 ± 0.13.

Consider `CC(C)O` [propan-2-ol] + CCCC[N+](C)(C)C.O=S(=O)([N-]S(=O)(=O)C(F)(F)F)C(F)(F)F, for which the activity coefficient (302.55 K) turned out to be 2.4 ± 0.16; the activity coefficient (312.15 K) was 2.14 ± 0.15; the activity coefficient (322.85 K) came out at 1.89 ± 0.13; the activity coefficient (333.35 K) came out at 1.67 ± 0.11; the activity coefficient (343.65 K) came to 1.53 ± 0.1; the activity coefficient (354.05 K) came to 1.37 ± 0.09.

Take `CCC=O` [propanal] + CCCC[N+](C)(C)C.O=S(=O)([N-]S(=O)(=O)C(F)(F)F)C(F)(F)F: the activity coefficient by setting is: (301.65 K) 0.58 ± 0.04; (312.25 K) 0.57 ± 0.04; (322.75 K) 0.54 ± 0.04; (333.25 K) 0.53 ± 0.04; (343.55 K) 0.52 ± 0.04.

In the case of `CCCc1ccccc1` [propylbenzene] + CCCC[N+](C)(C)C.O=S(=O)([N-]S(=O)(=O)C(F)(F)F)C(F)(F)F, the activity coefficient was 3.95 ± 0.27 (333.25 K), 3.86 ± 0.26 (343.65 K), 3.79 ± 0.26 (354.05 K) and 3.69 ± 0.25 (364.45 K).

As for `Cc1ccccc1` [toluene] + CCCC[N+](C)(C)C.O=S(=O)([N-]S(=O)(=O)C(F)(F)F)C(F)(F)F, the activity coefficient is, setting by setting: (322.75 K) 1.73 ± 0.12; (333.25 K) 1.71 ± 0.11; (343.65 K) 1.7 ± 0.11; (364.45 K) 1.68 ± 0.11.

On to `ClC(Cl)Cl` [trichloromethane] + CCCC[N+](C)(C)C.O=S(=O)([N-]S(=O)(=O)C(F)(F)F)C(F)(F)F, for which the activity coefficient reads like this: (301.75 K) 1.03 ± 0.06; (312.15 K) 1.04 ± 0.07; (333.25 K) 1.04 ± 0.07.

For the molecule `CCCCCCCCCCC` [undecane] + CCCC[N+](C)(C)C.O=S(=O)([N-]S(=O)(=O)C(F)(F)F)C(F)(F)F, the activity coefficient runs as follows: (333.25 K) 94.4 ± 6.5; (343.65 K) 83.9 ± 5.8; (354.05 K) 73.3 ± 5; (364.55 K) 66.3 ± 4.5; (374.95 K) 56 ± 3.8.
